Earlier results, collected in patent US20230364244A1, “DENDRIMER COMPOSITIONS AND METHODS FOR DRUG DELIVERY TO INJURED KIDNEY” (Ashvattha Therapeutics, Inc., priority 2020, published 2023).

Biological target: T1, PPAR-δ (Homo sapiens, UniProt Q03181)
T1 construct: host or cells: human mesenchymal stem cells (endogenous receptor)
T1 sequence (Q03181 1-441): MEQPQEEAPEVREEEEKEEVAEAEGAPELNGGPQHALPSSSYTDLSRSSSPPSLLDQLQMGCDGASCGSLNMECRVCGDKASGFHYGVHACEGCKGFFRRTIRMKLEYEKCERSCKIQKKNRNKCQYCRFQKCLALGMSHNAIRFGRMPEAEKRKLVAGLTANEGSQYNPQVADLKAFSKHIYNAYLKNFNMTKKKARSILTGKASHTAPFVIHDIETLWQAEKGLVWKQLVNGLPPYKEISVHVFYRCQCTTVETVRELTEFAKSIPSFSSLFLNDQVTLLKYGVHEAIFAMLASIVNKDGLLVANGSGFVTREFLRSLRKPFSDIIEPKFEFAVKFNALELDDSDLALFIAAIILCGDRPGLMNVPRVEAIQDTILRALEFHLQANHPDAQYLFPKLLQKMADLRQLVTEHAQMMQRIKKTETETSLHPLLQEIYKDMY
Conditions: co-culture; inhibition of PPAR-δ in MSCs

Structure (SMILES): O=C(NCCS(=O)(=O)c1ccc(C(F)(F)F)cn1)c1ccc(Cl)cc1 [GSK3787]
- ability of human MSCs to limit proliferation of peripheral blood mononuclear cells: enhanced their ability to limit proliferation of peripheral blood mononuclear cells
